According to US9555061B2, “Synthesis and analysis of compounds capable of inducing differentiation of human mesenchymal stems cells into hepatocytes” (National University Corporation Torrori University, priority 2011, dated 2017):

Key:
[1] = tested on: UE7T-13 cells; experiment: Proliferation potential (toxicity), MTT assay (UE7T-13)
[2] = tested on: Wnt/β-catenin signaling pathway; experiment: Luciferase assay in sorted bone marrow-derived mesenchymal stem cells; type: cell-based, human; details: 40 or 45 μM; 8 days after the treatment
Method: Human bone marrow mononuclear cells that had been purchased from Lonza Inc. were suspended in 1 ml of Hanks' balanced salt solution (HBSS, Gibco, Life Technologies Corp.) supplemented with a 100-fold diluted APC-labeled anti-CD90 antibody, a 407-fold diluted PE-labeled anti-CD271 antibody, and 2% fetal bovine serum (FBS, Defined, Thermo Fisher Scientific Inc.), and were stained on ice for 30 min. A flow cytometer (MoFlo XDP, Beckman Coulter Inc.) was used to selectively separate mesenchymal stem cells. The resulting cells were cultured in Dulbecco's Modified Eagle's Medium (Low Glucose, Gibco, Life Technologies Corp.) containing 20% FBS, 100 U/ml penicillin, […] streptomycin (Nacalai Tesque), and 20 ng/ml basic fibroblast growth factor (TRANS GENIC INC., Ltd.) on a 35-mm dish under conditions at 37° C. and 5% CO2. The medium was changed every 4 days. After colonies were formed, the cells were detached using a 0.025% trypsin/1 mM EDTA solution (Nacalai Tesque), split on a 100-mm dish, and cultured under conditions at 37° C. and 5% CO2. Then, the cells which were kept 70 to 80% confluent were detached using trypsin treatment. These cells in one dish were divided into four dishes for passage.
Cells were seeded on a 96-well plate at a cell density of 5.0×10^3 cells/cm^2. […]

## (6S,9aS)-6-phenyl-8-naphthalen-1-ylmethyl-4,7-dioxo-hexahydro-pyrazino[1,2-a]pyrimidine-1-carbocylic acid benzylamide [IC-2]
[1]; days 2, 4, 8 of treatment
  concentration with very low cell toxicity toward UE7T-13 cells: ≤ 20 µM
[1]; days 2, 4, and 8
  concentration at which proliferation potential did not remain: 50 µM
[2]
  inhibition of the Wnt/β-catenin signaling pathway (luciferase activity): significantly inhibited
